{"source": "patent US6423307B1", "about": "“Bioadhesive complexes of polycarbophil and azole antifungal or antiprotozoal drugs” (Farmigea S.p.A., priority 1996, dated 2002)", "key": {"[1]": {"tested_on": "Candida albicans, strain ATCC 48867", "assay": "Experimental intravaginal infection by Candida albicans in a murine model", "format": "in vivo, CBA/J (H-2^k) mice", "details": "for Not improved (% of mice): above 990 colonies; for Not improved (number of mice): vaginal wash 4 hours after dosing, above 990 colonies in 50 μl PBS; for Improved (% of mice) / Improved (number of mice): 100 to 990 colonies in 50 μl PBS; for Cured (number of mice): all cultures negative; for Sensibly improved (% of mice) / Sensibly improved (number of mice): less than 100 colonies in 50 μl PBS", "description": "In the frame of the microbiological experimentation of the products of the invention, the in vivo pharmacological activity of the econazole-polycarbophil complex has also been tested, in comparison with that of econazole (base), in the treatment of an experimental intravaginal infection by Candida albicans, reproduced in a murine model.\nVaginal candidiasis in rodents may be induced only in pseudoestrus conditions (P. L. Fidel, M. E. Lynch, J. D. Sobel, Infection and Immunity, 61 (5), 1993, 1990). For this reason, 72 hours before vaginal inoculation, the CBA/J (H-2^k) mice, described as sensible to such infection (P. L. Fidel, J. L. Cutright, J. D. Sobel, Infection and Immunity, 63 (10), 1995, 4191) were treated with 0.5 mg of estradiol valerate, dissolved in sesame oil, administered by subcutaneous route. The estrogen administration was repeated weekly until completion of the study. Blastoconoids (5×10^5) of Candida albicans, strain ATCC 48867, were inoculated in the vagina of mice previously treated with estrogens. After one week from the inoculation, the infection degree was evaluated by means of vaginal washing and subsequent count of the colony-forming units (CFU) on plates of Sabouraud agar, to which chloramphenicol and gentamicin had been added.\nThe infected animals were divided into three test groups, each one of which underwent a therapeutic treatment for five subsequent days (from day 1 to day 5). Each therapeutic treatment respectively consisted of: 1) econazole (base) (0.5 wt. % and 1 wt. %); 2) econazole-polycarbophil complex (0.5 wt. % and 1 wt. % calculated as econazole); 3) excipients (control group).\nThe infection degree was checked before starting the treatment and at the end thereof (day 6). […] The statistical evaluation of the results was made by means of the χ^2 test."}, "C. albicans ATCC 48867 [2]": {"tested_on": "C. albicans ATCC 48867", "assay": "Antifungal assay in solid medium (inhibition halo)", "format": "cell-based, Candida albicans", "method": "(§1) Two standard American Type Culture Collection (ATCC) strains were used for the assays, i.e. those deposited under the numbers ATCC 48867 and ATCC 23866. Econazole (base) and the econazole-polycarbophil complex were prepared by using different concentrations of the active ingredient depending on the assay requirements, as well as different solvents (i.e. propylene glycol, DMSO), with or without a thickening excipient substance (i.e. hydroxypropylcellulose). The activity of each solvent was also tested, as well as the activity of the excipient and that of polycarbophil alone.\nThe antifungal activity has been evaluated in an assay in solid medium using Petri dishes containing Sabouraud medium with 2% agar. The dishes were uniformly seeded, with the aid of a sterile pad, with an aqueous suspension containing C. albicans at a density of 2 McFarland. By means of an instrument of 6 mm diameter, incisions were made on the dishes in order to obtain regular cavities in the agar thickness. Each one of the substances under test was placed in one of these cavities, in amounts ranging from 50 to 100 μl. The plates were then incubated for 24 h in a thermostat at 37° C. The antifungal activity was evaluated by measuring the diameter of the inhibition of C. albicans growth around each cavity.\nThe antifungal assay in solid medium turned out to be a highly sensitive and reproducible assay also for the products under test. At least five separate experiments for evaluating the inhibition halos were carried our for each one of the two different strains and for each one of the compounds examined. Similar results were obtained with each compound in all of the experiments performed."}, "C. albicans ATCC 48867 [3]": {"tested_on": "C. albicans ATCC 48867", "assay": "Susceptibility test in microplate (liquid medium), MIC", "format": "cell-based, Candida albicans", "details": "48 h at 37° C.", "method": "as §1\n(§2) Stock solutions of econazole (base) and of the econazole-polycarbophil complex were obtained by dissolving the compounds in DMSO at a concentration of 1.5 mg/ml. Two serial 10-fold dilutions in DMSO were made starting from the stock solutions, up to a concentration of 15 μg/ml. From this concentration each compound was subsequently diluted in Yeast Nitrogen Base medium, to which 0.5% glucose and 0.05% bovine albumin had been added. The mixtures were then placed, at different concentrations, in microplate wells (90 μl volume each). 10 μl of a suspension of C. albicans obtained by diluting by {fraction (1/10+L )} a preparation having a turbidity of 2 McFarland were then inoculated in each well. […]"}, "C. albicans ATCC 23866": {"tested_on": "C. albicans ATCC 23866", "assay": "Susceptibility test in microplate (liquid medium), MIC", "format": "cell-based, Candida albicans", "details": "48 h at 37° C.", "method": "as §1, §2"}, "[4]": {"details": "0.5 wt. % econazole, 5 days, checked day 6"}}, "data": [{"smiles": "Clc1ccc(COC(Cn2ccnc2)c2ccc(Cl)cc2Cl)cc1", "note": "(stereo not shown) [econazole (base), 1-{2-[(4-chlorophenyl)methoxy]-2-(2,4-dichlorophenyl)ethyl}-1H-imidazole]", "values": [{"measurement": "Not improved (% of mice)", "setting": "[1]; [4]", "value": 11.11, "unit": "%"}, {"measurement": "Not improved (number of mice)", "setting": "[1]; [4]", "value": 1}, {"measurement": "Improved (% of mice)", "setting": "[1]; 0.5 wt. % econazole", "value": 66.66, "unit": "%"}, {"measurement": "Improved (number of mice)", "setting": "[1]; 0.5 wt. % econazole", "value": 6}, {"measurement": "Cured (number of mice)", "setting": "[1]; 0.5 wt. % econazole", "value": 0}, {"measurement": "Sensibly improved (% of mice)", "setting": "[1]; 0.5 wt. % econazole", "value": 22.22, "unit": "%"}, {"measurement": "Sensibly improved (number of mice)", "setting": "[1]; 0.5 wt. % econazole", "value": 2}, {"measurement": "Not improved (number of mice)", "setting": "[1]; 1 wt. % econazole, 5 days, checked day 6", "value": 3}, {"measurement": "Improved (% of mice)", "setting": "[1]; 1 wt. % econazole", "value": 56.25, "unit": "%"}, {"measurement": "Improved (number of mice)", "setting": "[1]; 1 wt. % econazole", "value": 9}, {"measurement": "Not improved (% of mice)", "setting": "[1]; 1 wt. % econazole", "value": 18.75, "unit": "%"}, {"measurement": "Cured (number of mice)", "setting": "[1]; 1 wt. % econazole", "value": 0}, {"measurement": "Sensibly improved (% of mice)", "setting": "[1]; 1 wt. % econazole", "value": 25.00, "unit": "%"}, {"measurement": "Sensibly improved (number of mice)", "setting": "[1]; 1 wt. % econazole", "value": 4}, {"measurement": "cured animals added to sensibly cured animals (% of mice)", "setting": "[1]; 1 wt. % econazole, p=0.0131 between groups", "value": 25, "unit": "%"}, {"measurement": "Diameter of inhibition halo", "setting": "C. albicans ATCC 48867 [2]; Concentration 3 × 10^−2 %, preparation with HPC", "value": "31.2 ± 0.84", "unit": "mm"}, {"measurement": "Diameter of inhibition halo", "setting": "C. albicans ATCC 48867 [2]; Concentration 3 × 10^−2 %, preparation without HPC", "value": "31.2 ± 0.84", "unit": "mm"}, {"measurement": "Diameter of inhibition halo", "setting": "C. albicans ATCC 48867 [2]; Concentration 3 × 10^−3 %, preparation with HPC", "value": "29.4 ± 0.89", "unit": "mm"}, {"measurement": "Diameter of inhibition halo", "setting": "C. albicans ATCC 48867 [2]; Concentration 3 × 10^−3 %, preparation without HPC", "value": "28.6 ± 0.55", "unit": "mm"}, {"measurement": "Diameter of inhibition halo", "setting": "C. albicans ATCC 48867 [2]; Concentration 3 × 10^−4 %, preparation with HPC", "value": "20.8 ± 1.30", "unit": "mm"}, {"measurement": "Diameter of inhibition halo", "setting": "C. albicans ATCC 48867 [2]; Concentration 3 × 10^−4 %, preparation without HPC", "value": "20.2 ± 1.09", "unit": "mm"}, {"measurement": "Diameter of inhibition halo", "setting": "C. albicans ATCC 48867 [2]; Concentration 3 × 10^−5 %, preparation with HPC", "value": "13.0 ± 1.00", "unit": "mm"}, {"measurement": "Diameter of inhibition halo", "setting": "C. albicans ATCC 48867 [2]; Concentration 3 × 10^−5 %, preparation without HPC", "value": "12.4 ± 0.58", "unit": "mm"}, {"measurement": "Minimal inhibitory concentration", "setting": "C. albicans ATCC 48867 [3]", "value": "5.6 ± 0.3 μg/ml of econazole"}, {"measurement": "Minimal inhibitory concentration", "setting": "C. albicans ATCC 23866", "value": "5.6 ± 0.4 μg/ml of econazole"}]}]}
